Source: patent US6245817A, “NPY5 receptor antagonists and methods for using same” (Bayer Corporation, priority 1999, dated 2001)
Structures can show the parent of a compound that is named as a salt.

Columns and labels:
Rat NPY5 Receptor [1] = target: T1, Rat NPY5 Receptor (Rattus norvegicus, UniProt Q63634); test: Rat NPY5 Receptor Binding Assay; details: [125I]PYY; read-out: rNPY5 IC50
T1 sequence (Q63634 1-445): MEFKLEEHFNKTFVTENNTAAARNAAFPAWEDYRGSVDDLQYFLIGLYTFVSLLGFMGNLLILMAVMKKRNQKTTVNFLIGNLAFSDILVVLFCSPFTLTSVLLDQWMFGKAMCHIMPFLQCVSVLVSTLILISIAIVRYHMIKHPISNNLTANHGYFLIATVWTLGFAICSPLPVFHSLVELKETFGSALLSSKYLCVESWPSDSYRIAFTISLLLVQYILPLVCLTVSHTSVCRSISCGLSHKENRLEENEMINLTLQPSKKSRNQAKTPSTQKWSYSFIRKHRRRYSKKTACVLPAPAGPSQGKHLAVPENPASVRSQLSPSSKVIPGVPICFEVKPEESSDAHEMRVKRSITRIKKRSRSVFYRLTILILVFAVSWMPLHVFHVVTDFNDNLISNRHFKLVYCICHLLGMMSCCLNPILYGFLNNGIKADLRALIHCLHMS

Human NPY1 Receptor = target: T2, Human NPY1 Receptor (Homo sapiens, UniProt P25929); test: Human NPY1 Receptor Binding Assay; details: SK-N-MC cells, [125I]PYY; read-out: hNPY1 IC50
T2 sequence (P25929 1-384): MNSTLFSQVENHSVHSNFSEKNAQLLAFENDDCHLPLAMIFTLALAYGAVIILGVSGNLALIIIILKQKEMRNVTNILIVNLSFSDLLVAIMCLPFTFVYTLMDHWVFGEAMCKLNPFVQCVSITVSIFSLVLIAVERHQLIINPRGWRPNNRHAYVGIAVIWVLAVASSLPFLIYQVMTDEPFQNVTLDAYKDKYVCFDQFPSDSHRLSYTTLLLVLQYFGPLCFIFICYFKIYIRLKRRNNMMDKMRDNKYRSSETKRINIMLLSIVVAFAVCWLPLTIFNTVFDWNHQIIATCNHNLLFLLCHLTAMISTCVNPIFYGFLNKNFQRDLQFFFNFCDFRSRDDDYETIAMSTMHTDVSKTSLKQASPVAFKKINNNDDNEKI

Rat NPY5 Receptor [2] = target: T1, Rat NPY5 Receptor; test: Rat NYP5 Cyclase Assay (In Vitro Functional Assay); assay type: cell-based; details: 20 min, percentage of forskolin-stimulated adenylate cyclase, read-out: rNPY5 % FSAC (10 μM)
Protocol: D. Rat NYP5 Cyclase Assay (In Vitro Functional Assay)
Cells stably expressing the rat NPY5 receptor are resuspended in serum-free DMEM containing 10 mM HEPES (pH 7.4) and 1 mM isobutylmethylxanthine (IBMX). 1 μM forskolin and drug dilution are then added to the cells. After a 20 minute incubation of the samples at 37° C., the assay is stopped by placing the samples in boiling water for 3 minutes. The cAMP produced in each sample is quantitated with a radioimmunoassay kit (NEN Dupont). Data are expressed as a percentage of forskolin-stimulated adenylate cyclase.

Human NPY4/PP1 receptor = Human NPY4/PP1 receptor (Homo sapiens, UniProt P50391); test: Human NPY4/PP1 Receptor Binding Assay; details: [125I]human PP; read-out: hNPY4 IC50
Human NPY2 receptor = target: T3, Human NPY2 receptor (Homo sapiens, UniProt P49146); test: Human NPY2 Receptor Binding Assay; details: [125I]PYY; read-out: hPPY2 IC50
T3 sequence (P49146 1-381): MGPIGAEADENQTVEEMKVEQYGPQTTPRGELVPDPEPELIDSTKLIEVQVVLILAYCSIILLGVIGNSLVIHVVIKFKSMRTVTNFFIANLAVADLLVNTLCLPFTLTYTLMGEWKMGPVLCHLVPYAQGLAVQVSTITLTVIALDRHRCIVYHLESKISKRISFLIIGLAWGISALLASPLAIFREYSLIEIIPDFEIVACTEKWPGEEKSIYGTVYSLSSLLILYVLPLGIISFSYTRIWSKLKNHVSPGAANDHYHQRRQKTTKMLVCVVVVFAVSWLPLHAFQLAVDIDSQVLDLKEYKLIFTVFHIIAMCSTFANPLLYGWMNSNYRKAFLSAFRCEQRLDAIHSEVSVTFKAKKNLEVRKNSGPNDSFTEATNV
Protocol: Binding assays were performed on GF/C Millipore 96-well plates pretreated with 0.02% polyethylenimine. The binding buffer for rat Y2 binding is Krebs-Ringer bicarbonate (pH 7.4) containing 0.01% BSA and 0.005% bacitracin. Samples consist of membrane protein, 25 pM [125I]PYY and drug dilution. Nonspecific binding is defined by 1 μpM NPY.
After a 2 hour incubation at room temperature with constant mixing, the samples are aspirated on a vacuum manifold, and rinsed with ice-cold binding buffer. The amount of radioactivity in each well is quantitated with either gamma counting or liquid scintillation.

Human NPY5 Receptor = target: T4, Human NPY5 Receptor (Homo sapiens, UniProt Q15761); test: Human NPY5 Receptor Binding Assay; details: [125I]PYY; read-out: hNPY5 IC50
T4 sequence (Q15761 1-445): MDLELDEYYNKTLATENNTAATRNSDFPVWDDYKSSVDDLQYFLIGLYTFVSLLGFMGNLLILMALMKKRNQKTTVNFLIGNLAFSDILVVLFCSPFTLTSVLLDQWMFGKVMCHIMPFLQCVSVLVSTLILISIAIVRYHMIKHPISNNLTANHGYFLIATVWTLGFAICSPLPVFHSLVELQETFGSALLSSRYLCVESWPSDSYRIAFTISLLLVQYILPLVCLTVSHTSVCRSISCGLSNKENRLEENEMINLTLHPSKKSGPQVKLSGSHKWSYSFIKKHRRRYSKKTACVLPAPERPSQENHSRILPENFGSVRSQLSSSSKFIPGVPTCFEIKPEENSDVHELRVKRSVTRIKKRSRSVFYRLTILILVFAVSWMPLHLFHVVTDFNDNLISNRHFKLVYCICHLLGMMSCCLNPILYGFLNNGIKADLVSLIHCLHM

Human NPY4/PP1 receptor, sequence (P50391 whole entry): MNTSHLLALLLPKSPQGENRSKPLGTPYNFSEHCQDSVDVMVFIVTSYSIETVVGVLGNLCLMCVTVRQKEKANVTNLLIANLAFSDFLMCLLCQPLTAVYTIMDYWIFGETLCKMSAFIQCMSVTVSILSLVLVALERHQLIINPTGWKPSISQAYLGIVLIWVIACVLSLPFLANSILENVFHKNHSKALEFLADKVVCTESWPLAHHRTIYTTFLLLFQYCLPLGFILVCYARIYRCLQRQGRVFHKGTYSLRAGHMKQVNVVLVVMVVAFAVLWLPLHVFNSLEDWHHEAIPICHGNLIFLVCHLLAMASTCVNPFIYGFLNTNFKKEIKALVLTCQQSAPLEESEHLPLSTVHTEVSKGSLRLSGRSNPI

IC50 (Rat NPY5 Receptor [1]) | IC50 (Human NPY1 Receptor) | activity at 10 µM (Rat NPY5 Receptor [2]) | IC50 (Human NPY4/PP1 receptor) | IC50 (Human NPY2 receptor) | IC50 (Human NPY5 Receptor) | SMILES
0.029 µM | > 5 µM | 99% | > 5 µM | > 5 µM | 0.16 µM | Cn1nnnc1SCC(=O)Nc1ccc(C2CCCCC2)cc1 [Compound 8, N-(4-Cyclohexyl-phenyl)-2-(1-methyl-1H-tetrazol-5-ylsulfanyl)-acetamide]
 |  | 105% |  | > 5 µM | 0.22 µM | Nc1nnc(SCC(=O)Nc2ccc(C3CCCCC3)cc2)s1 [Compound 51, 2-(-Amino-[1,3,4]thiadiazol-2-ylsulfanyl)-N-4-cydohexyl-phenyl-cetamide]
2.4 µM | > 5 µM |  | > 5 µM | > 5 µM | 4 µM | CCC(C)c1ccc(NC(=O)CSc2nccn2C)cc1 (stereo not shown) [Compound 148, N-(4-sec-Butyl-phenyl)-2-(1-methyl-1H-imidazo1-2-ylsulfanyl)-acetamide, reference compound]
0.28 µM | > 5 µM |  | > 5 µM | > 5 µM | 0.24 µM | Cc1ccc(SCC(=O)Nc2cccc(C#N)c2)cc1 [Compound 151, N-(3-Cyano-phenyl)-2-p-tolylsulfanyl-acetamide, reference compound]
> 10 µM | > 5 µM |  | > 5 µM | > 5 µM | > 10 µM | Cn1c(CN2C(=O)CSc3ccc(C(F)(F)F)cc32)nnc1SCC(=O)Nc1ccccc1 [Compound 152, 2-[4-Methyl-5-(3-oxo-6-trifluornmethyl-2,3-dihydro-benzo[1,4]thiazin-4-ylmethyl)-4H-[1,2,4]triazol-3-ylsulfanyl]-N-phenyl-acetamide, reference compound]
10 µM | > 5 µM |  | > 5 µM | > 5 µM | > 10 µM | Cn1c(-c2ccc(Cl)cc2)cnc1SCC(=O)Nc1ccc(Cl)cc1 [Compound 154, N-(4-Chloro-phenyl)-2-[5-(4-chloro-phenyl)-1-methyl-1H-imidazol-2-ylsulfanyl]-acetamide, reference compound]
> 10 µM | > 5 µM |  | > 5 µM | > 5 µM | > 10 µM | CC(C)c1ccc(NC(=O)CSc2nccn2C)cc1 [Compound 155, N-(4-Isopropyl-phenyl)-2-(1-methyl-1H-imidazol-2-ylsulfanyl)-acetamide, reference compound]
> 10 µM | > 5 µM |  | > 5 µM | > 5 µM | > 10 µM | CCOc1ccc(NC(=O)CSc2nccn2C)cc1 [Compound 156, N-(4-Ethoxy-phenyl)-2-(1-methyl-1H-imidazol-2-ylsulfanyl)-acetamide, reference compound]
0.76 µM | > 5 µM |  | > 5 µM | > 5 µM | 0.87 µM | O=C(CSc1ccccn1)Nc1ccc(C2CCCCC2)cc1 [Compound 182, N-(4-Cyclohexyl-phenyl)-2-(pyridin-2-ylsulfanyl)-acetamide, reference compound]
> 10 µM | > 5 µM |  | > 5 µM | > 5 µM | > 10 µM | O=C(CSC1=NCCN1)Nc1ccc(Cl)cc1 [Compound 187, N-(4-Chloro-phenyl)-2-(4,5-dihydro-1H-imidazol-2-ylsulfanyl)-acetamide, reference compound]

SMILES | IC50 (Rat NPY5 Receptor [1]) | IC50 (Human NPY1 Receptor) | activity at 10 µM (Rat NPY5 Receptor [2]) | IC50 (Human NPY4/PP1 receptor) | IC50 (Human NPY2 receptor) | IC50 (Human NPY5 Receptor)
Cn1ccnc1SCC(=O)Nc1ccc(C2CCCCC2)cc1 [Compound 3, N-(4-Cyclohexyl-phenyl)-2-(1-methyl-1H-imidazol-2-ylsulfanyl)-acetamide Hydrochloride] | 0.12 µM | > 5 µM | 103% | > 5 µM | > 5 µM | 0.16 µM
